Assay results as given in patent US7524503B2, “Human cytomegalovirus (HCMV) cytotoxic T cell epitopes, polyepitopes compositions comprising same and diagnostic and prophylactic and therapeutic uses therefor” (priority 2001, dated 2009).

What was measured:
[1] = target: T1, HLA B7 (Homo sapiens, UniProt P01889); assay type: cell-based; conditions: HLA B7 on transfected T2 cells; relative increase vs no peptide at 26° C.
T1 construct: expressed in transfected cells; host or cells: T2 cells

[2] = test system: HLA B8; assay: MHC stabilization assay on T2 cells; assay type: cell-based, human; conditions: HLA B8 on transfected T2 cells; relative increase vs no peptide at 26° C.
[3] = test system: peptide-sensitized autologous PHA blasts or LCLs; assay type: cell-based, human; set-up: key to CTL response: Y: Yes; ND: Not detected; conditions: predicted epitopes, Table 3
[4] = test system: PBMC from healthy HCMV seropositive donors; assay: IFN-γ ELISPOT assay; assay type: cell-based, human; conditions: peptide 10 μg/ml
Outline: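 PBMC from healthy HCMV-seropositive donors (2.5×10^5 cells/well) were stimulated 18 h at 37° C with individual synthetic HCMV peptides (10 μg/ml) on anti-IFN-γ-coated nitrocellulose. IFN-γ spots were developed with biotinylated antibody and streptavidin-alkaline phosphatase and counted automatically. Counts were averaged over 3 wells, and no-peptide wells were subtracted.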

T1 sequence (P01889 25-362): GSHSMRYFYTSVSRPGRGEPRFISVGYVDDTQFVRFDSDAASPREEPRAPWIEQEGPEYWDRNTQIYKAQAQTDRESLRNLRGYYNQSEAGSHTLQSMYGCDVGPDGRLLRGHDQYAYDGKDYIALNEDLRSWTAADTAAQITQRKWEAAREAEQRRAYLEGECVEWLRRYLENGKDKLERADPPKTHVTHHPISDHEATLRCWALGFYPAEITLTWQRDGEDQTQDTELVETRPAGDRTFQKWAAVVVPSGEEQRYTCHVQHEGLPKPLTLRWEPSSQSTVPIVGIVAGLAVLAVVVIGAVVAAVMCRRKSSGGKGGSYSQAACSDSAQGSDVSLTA
T1 sequence (P61769 21-119, further chain): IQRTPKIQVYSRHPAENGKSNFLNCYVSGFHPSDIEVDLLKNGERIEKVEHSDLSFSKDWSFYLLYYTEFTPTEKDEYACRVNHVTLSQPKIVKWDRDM

Row | Sequence | MSE (MHC stabilization efficiency) [1] | MSE (MHC stabilization efficiency) [2] | other results
1 | EPMSIYVYAL | + (+ = 51-99%) |  | 
2 | MPRCLFAGPL (human cytomegalovirus gH CTL epitope peptide) | +++ (+++ = 200-300%) |  | 
3 | ELKRKMMYM (human cytomegalovirus IE1 CTL epitope peptide) |  | − (− = 0-50%) | CTL response [3]: Y; ELISPOT Responses (SFC/10^6 PBMC) ([4]; donor eleven): 300 SFC/10^6 PBMC; ELISPOT Responses (SFC/10^6 PBMC) ([4]; donor epsilon): SC(1000), SFC/10^6 PBMC; ELISPOT Responses (SFC/10^6 PBMC) ([4]; donor gamma): 100 SFC/10^6 PBMC; ELISPOT Responses (SFC/10^6 PBMC) ([4]; donor sixteen): 4999 SFC/10^6 PBMC; ELISPOT Responses (SFC/10^6 PBMC) ([4]; donor three): 1992 SFC/10^6 PBMC
4 | QARLTVSGL | +++ (+++ = 200-300%) |  | ELISPOT Responses (SFC/10^6 PBMC) ([4]; donor four): MB(1116) SFC/10^6 PBMC
5 | KARDHLAVL (human cytomegalovirus pp150 CTL epitope peptide) | +++ (+++ = 200-300%) |  | ELISPOT Responses (SFC/10^6 PBMC) ([4]; donor four): MB(975) SFC/10^6 PBMC
6 | QIKVRVDMV (human cytomegalovirus IE1 CTL epitope peptide) |  | + (+ = 51-99%) | CTL response [3]: Y; ELISPOT Responses (SFC/10^6 PBMC) ([4]; donor eleven): 2425 SFC/10^6 PBMC; ELISPOT Responses (SFC/10^6 PBMC) ([4]; donor epsilon): 2848 SFC/10^6 PBMC; ELISPOT Responses (SFC/10^6 PBMC) ([4]; donor one): 475 SFC/10^6 PBMC; ELISPOT Responses (SFC/10^6 PBMC) ([4]; donor sixteen): 2251 SFC/10^6 PBMC
7 | FPDLFCLPL (human cytomegalovirus gH CTL epitope peptide) | +++ (+++ = 200-300%) |  | 
8 | LCPKSIPGL |  | − (− = 0-50%) | 
9 | VMKRRIEEI (human cytomegalovirus IE1 CTL epitope peptide) |  | + (+ = 51-99%) | 
10 | QPKRRRHRQ |  | − (− = 0-50%) | 
11 | SPRTHYLML (human cytomegalovirus gH CTL epitope peptide) | +++ (+++ = 200-300%) |  | 
12 | IMKDKNTPF (human cytomegalovirus IE2 CTL epitope peptide) |  | +++ (+++ = 200-300%) | 
13 | TPMLLIFGHL (human cytomegalovirus gH CTL epitope peptide) | ++ (++ = 100-199%) |  | 
14 | APYQRDNFIL (human cytomegalovirus gH CTL epitope peptide) | +++ (+++ = 200-300%) |  | 
15 | SPRTHYLMLL (human cytomegalovirus gH CTL epitope peptide) | +++ (+++ = 200-300%) |  | 
16 | RHRIKEHML (human cytomegalovirus IE1 CTL epitope peptide) |  | − (− = 0-50%) | 
17 | ELRRKMMYM (human cytomegalovirus IE1 CTL epitope peptide) |  | ++ (++ = 100-199%) | CTL response [3]: Y; ELISPOT Responses (SFC/10^6 PBMC) ([4]; donor eleven): 430 SFC/10^6 PBMC; ELISPOT Responses (SFC/10^6 PBMC) ([4]; donor epsilon): 1243 SFC/10^6 PBMC; ELISPOT Responses (SFC/10^6 PBMC) ([4]; donor one): 145 SFC/10^6 PBMC; ELISPOT Responses (SFC/10^6 PBMC) ([4]; donor sixteen): 4999 SFC/10^6 PBMC
18 | SPWAPTAPL (human cytomegalovirus pp150 CTL epitope peptide) | +++ (+++ = 200-300%) |  | ELISPOT Responses (SFC/10^6 PBMC) ([4]; donor four): MB(180) SFC/10^6 PBMC
19 | APVAGSMPEL (human cytomegalovirus US11 CTL epitope peptide) | +++ (+++ = 200-300%) |  | 
20 | WPRERAWAL (human cytomegalovirus pp150 CTL epitope peptide) | +++ (+++ = 200-300%) | ++ (++ = 100-199%) | ELISPOT Responses (SFC/10^6 PBMC) ([4]; donor sixteen): TC(67) SFC/10^6 PBMC
21 | NVRRSWEEL (human cytomegalovirus pp150 CTL epitope peptide) | ++ (++ = 100-199%) |  | ELISPOT Responses (SFC/10^6 PBMC) ([4]; donor five): 274 SFC/10^6 PBMC; ELISPOT Responses (SFC/10^6 PBMC) ([4]; donor four): 1431 SFC/10^6 PBMC
22 | TPRVYYQTL (human cytomegalovirus US11 CTL epitope peptide) | +++ (+++ = 200-300%) |  | 
23 | PRKKKSKRI (human cytomegalovirus IE2 CTL epitope peptide) |  | − (− = 0-50%) | 
24 | VLCPKNMII [reference compound] |  | − (− = 0-50%) | 
